Columns and labels:
KS Y-1 and KS-SLK cells = assay: Kaposi's Sarcoma clonogenic assay in cultured cells; format: cell-based, human; conditions: inhibition of Kaposi's Sarcoma cell growth in vitro in cultured cells
Description: Briefly, the KS Y-1 cells were obtained from mononuclear cells isolated from pleural effusion of an AIDS patient with KS in the lungs. After the depletion of T lymphocytes, monocytes/macrophages and fibroblasts using monoclonal antibodies against CD2, CD3, CD4, CD8, CD10 and CD14 membrane antigens and baby rabbit complement, the cells were cultured in the absence of exogenous growth factors to select for transformed cells. […] Clonogenic assays were performed by seeding the KS Y-1 or KS-SLK cells in methylcellulose (0.8%, v/v), incubating the cells for 10 days in the presence or absence of the hCC, β-hCG or β-hCG peptide preparations and then counting the number of well-formed colonies of triplicate wells formed after seeding with 5×10^4 cells.
To assay for activity against Kaposi's sarcoma cell growth in vitro, the clonogenic assay described herein was used with the KS Y-1 and KS-SLK cultured Kaposi's Sarcoma cell lines,.

[1] = tested on: hematopoietic progenitor cells; assay: Hematopoietic progenitor clonogenic assays (CFU-GEMM, BFU-e, CFU-GM); format: cell-based, human; conditions: relative increase of hematopoietic colony cell number; hCG preparations 200 IU/ml, subunits and peptides 100 μg/ml
Description: The effect of hCG preparations and peptides was assayed on hematopoietic progenitor cells in vitro: Hematopoietic progenitor cells (2×10^5 cell/ml) were isolated from normal bone marrow and cord blood and seeded in methylcellulose. […] The hCG preparations were administered at 200 IU/ml and the β- and α-subunits and peptides were administered at 100 μg/ml. The native commercial preparation of hCG (APL™, Wyeth Ayerst) was pre-tested for anti-HIV and anti-KS activities. Aggregates containing more than 50 cells after 10 days of culture were counted as colonies.

HIV-1 = conditions: for HIV in vitro Inhibition: inhibition of HIV-1 replication in vitro (HIV-1 strains and HIV-1 primary isolates)
Excerpt: To prepare HIV infected cells for the in vitro assay of hCG preparations and β-hCG peptides and derivatives, primary PBMCs, macrophages, and CD4^+ T cells isolated from peripheral blood and the H9 human T cell line, were acutely or chronically infected with 8 different HIV-1 strains: 4 cell line adapted viruses, namely the macrophage tropic Ba-L strain (Gartner et al., 1986, Science 233:215-219) and the CD4^+ T cell tropic MN, RF, and IIIB strains (10^5 TCID50/ml) (Popovic et al., 1984, Science […]; Gallo et al.; 1984, Science 224:500-503); 2 isolates, Ju1083 and G3, from Nigerian AIDS patients passed once in a CD4^+ T cell line (Sub-T1); and 2 primary (“clinical”) isolates from AIDS patients from Trinidad which were never passed in any cell line and were used at a titer of 7.5×10^4TCID50/ml. In all experiments; HIV1 (10^5 TCID50/ml) was added to the cells(10^6 cells/ml) for a 2 hour incubation after which the virus infected cells were washed with 10 ml phosphate buffered saline (PBS) three times to eliminate extra cellular virus. The test inhibitor, i.e. the hCG or β-hCG peptide preparation was then added and the cells were incubated with the test inhibiter for 9 to 10 days with serial sampling. Cultures were assayed for p24 antigen on days 3 to 10.
Peptides of the α- and β-subunits (0.05 to 50 nmoles/ml), native α chain preparation, and various crude preparations of the native hCG heterodimer (0.01 to 1,000 IU) and the native β-hCG subunit (100 to 1,000 μg) were tested for effects on HIV-1 replication in acutely infected cells-by measuring change in viral antigen levels in response to the above noted preparations (FIGS. 4A-D and Table 3).
The fractions were then tested for anti-HIV, anti-KS and pro-hematopoietic activities in vitro. To assay for inhibition of HIV-1 replication in vitro, the HIV-1 […] viral strain was used to infect PBMCs and PM-1 cells (derived from the HUT-78 T-cell lymphoma cell line) at 10^3 TCID50/ml as described in detail herein.

28. 113-132: β-hCG amino acids 113-132 (PRFQDSSSSKAPPPSLPSPS; UniProt P0DN86 133-152, looked up, fragment)
KS in vitro (KS Y-1 and KS-SLK cells): − (“−” represents less than 10% effect) | Pro-hematopoiesis in vitro Enhancement [1]: − (“−” represents less than 10% effect)

26. 134-144: β-hCG amino acids 134-144
KS in vitro (KS Y-1 and KS-SLK cells): − (“−” represents less than 10% effect) | Pro-hematopoiesis in vitro Enhancement [1]: − (“−” represents less than 10% effect) | HIV in vitro Inhibition (HIV-1): − (“−” represents less than 10% effect)

21. 74-95: β-hCG amino acids 74-95 (RGVNPVVSYAVALSCQCALCRR; UniProt P0DN86 94-115, looked up, fragment)
KS in vitro (KS Y-1 and KS-SLK cells): − (“−” represents less than 10% effect) | Pro-hematopoiesis in vitro Enhancement [1]: − (“−” represents less than 10% effect) | HIV in vitro Inhibition (HIV-1): − (“−” represents less than 10% effect)

24. 34-39: β-hCG amino acids 34-39 (CAGYCP; UniProt P0DN86 54-59, looked up, fragment)
KS in vitro (KS Y-1 and KS-SLK cells): − (“−” represents less than 10% effect) | HIV in vitro Inhibition (HIV-1): − (“−” represents less than 10% effect)

19. 93-100: β-hCG amino acids 93-100 (CRRSTTDC; UniProt P0DN86 113-120, looked up, fragment)
KS in vitro (KS Y-1 and KS-SLK cells): − (“−” represents less than 10% effect) | HIV in vitro Inhibition (HIV-1): − (“−” represents less than 10% effect)

37. 26-45: α-hCG amino acids 26-45 (LQCMGCCFSRAYPTPLRSKK; UniProt P01215 50-69, looked up, fragment)
KS in vitro (KS Y-1 and KS-SLK cells): − (“−” represents less than 10% effect) | Pro-hematopoiesis in vitro Enhancement [1]: − (“−” represents less than 10% effect) | HIV in vitro Inhibition (HIV-1): − (“−” represents less than 10% effect)

16. 31-50: β-hCG amino acids 31-50 (TTICAGYCPTMTRVLQGVLP; UniProt P0DN86 51-70, looked up, fragment)
KS in vitro (KS Y-1 and KS-SLK cells): − (“−” represents less than 10% effect) | Pro-hematopoiesis in vitro Enhancement [1]: − (“−” represents less than 10% effect) | HIV in vitro Inhibition (HIV-1): − (“−” represents less than 10% effect)

Oc1ccccc1 [phenol, reference compound]
inhibition of HIV-1 infection/replication in vitro (in words) (HIV-1): no effect on HIV-1 replication

39. 57-76: α-hCG amino acids 57-76 (STCCVAKSYNRVTVMGGFKV; UniProt P01215 81-100, looked up, fragment)
KS in vitro (KS Y-1 and KS-SLK cells): − (“−” represents less than 10% effect) | HIV in vitro Inhibition (HIV-1): − (“−” represents less than 10% effect)

27. 100-110: β-hCG amino acids 100-110 (CGGPKDHPLTC; UniProt P0DN86 120-130, looked up, fragment)
KS in vitro (KS Y-1 and KS-SLK cells): − (“−” represents less than 10% effect) | HIV in vitro Inhibition (HIV-1): − (“−” represents less than 10% effect)

17. 46-65: β-hCG amino acids 46-65 (SEQ ID NO:34) (QGVLPALPQVVCNYRDVRFE)
KS in vitro (KS Y-1 and KS-SLK cells): + (“+” represents greater than 15% effect) | inhibition of HIV-1 infection/replication in vitro (in words) (HIV-1): inhibited HIV-1 replication | HIV in vitro Inhibition (HIV-1): + (“+” represents greater than 15% effect)

36. 16-30: α-hCG amino acids 16-30 (PFFSQPGAPILQCMG; UniProt P01215 40-54, looked up, fragment)
KS in vitro (KS Y-1 and KS-SLK cells): − (“−” represents less than 10% effect) | Pro-hematopoiesis in vitro Enhancement [1]: − (“−” represents less than 10% effect) | HIV in vitro Inhibition (HIV-1): − (“−” represents less than 10% effect)

22. 7-40: β-hCG amino acids 7-40 (SEQ ID NO:33) (PRCRPINATLAVEKEGCPVCITVNTTICAGYCPT)
KS in vitro (KS Y-1 and KS-SLK cells): + (“+” represents greater than 15% effect) | Pro-hematopoiesis in vitro Enhancement [1]: − (“−” represents less than 10% effect) | inhibition of HIV-1 infection/replication in vitro (in words) (HIV-1): inhibited HIV-1 replication | HIV in vitro Inhibition (HIV-1): + (“+” represents greater than 15% effect)

29. 128-145: β-hCG amino acids 128-145 (LPSPSRLPGPSDTPILPQ; UniProt P0DN86 148-165, looked up, fragment)
KS in vitro (KS Y-1 and KS-SLK cells): − (“−” represents less than 10% effect) | Pro-hematopoiesis in vitro Enhancement [1]: −V (“−” represents less than 10% effect) | HIV in vitro Inhibition (HIV-1): − (“−” represents less than 10% effect)

40. 72-92: α-hCG amino acids 72-92 (GGFKVENHTACHCSTCYYHKS; UniProt P01215 96-116, looked up, fragment)
KS in vitro (KS Y-1 and KS-SLK cells): − (“−” represents less than 10% effect) | Pro-hematopoiesis in vitro Enhancement [1]: − (“−” represents less than 10% effect) | HIV in vitro Inhibition (HIV-1): − (“−” represents less than 10% effect)

38. 41-61: α-hCG amino acids 41-61 (LRSKKTMLVQKNVTSESTCCV; UniProt P01215 65-85, looked up, fragment)
KS in vitro (KS Y-1 and KS-SLK cells): − (“−” represents less than 10% effect) | HIV in vitro Inhibition (HIV-1): − (“−” represents less than 10% effect)

14. 1-20: β-hCG amino acids 1-20 (SKEPLRPRCRPINATLAVEK; UniProt P0DN86 21-40, looked up, fragment)
KS in vitro (KS Y-1 and KS-SLK cells): − (“−” represents less than 10% effect) | HIV in vitro Inhibition (HIV-1): − (“−” represents less than 10% effect)

20. 110-145: β-hCG amino acids 110-145 (CDDPRFQDSSSSKAPPPSLPSPSRLPGPSDTPILPQ; UniProt P0DN86 130-165, looked up, fragment)
KS in vitro (KS Y-1 and KS-SLK cells): − (“−” represents less than 10% effect) | Pro-hematopoiesis in vitro Enhancement [1]: − (“−” represents less than 10% effect)

23. 57-93: β-hCG amino acids 57-93 (CNYRDVRFESIRLPGCPRGVNPVVSYAVALSCQCALC; UniProt P0DN86 77-113, looked up, fragment)
KS in vitro (KS Y-1 and KS-SLK cells): − (“−” represents less than 10% effect) | Pro-hematopoiesis in vitro Enhancement [1]: − (“−” represents less than 10% effect) | HIV in vitro Inhibition (HIV-1): − (“−” represents less than 10% effect)

34. 88-92: α-hCG amino acids 88-92 (YYHKS; UniProt P01215 112-116, looked up, fragment)
KS in vitro (KS Y-1 and KS-SLK cells): − (“−” represents less than 10% effect) | inhibition of HIV-1 infection/replication in vitro (in words) (HIV-1): little or no effect | HIV in vitro Inhibition (HIV-1): − (“−” represents less than 10% effect)

18. 91-112: β-hCG amino acids 91-112 (ALCRRSTTDCGGPKDHPLTCDD; UniProt P0DN86 111-132, looked up, fragment)
KS in vitro (KS Y-1 and KS-SLK cells): − (“−” represents less than 10% effect) | Pro-hematopoiesis in vitro Enhancement [1]: − (“−” represents less than 10% effect)

31. 51-59: β-hCG amino acids 51-59 (ALPQVVCNY; UniProt P0DN86 71-79, looked up, fragment)
KS in vitro (KS Y-1 and KS-SLK cells): − (“−” represents less than 10% effect) | Pro-hematopoiesis in vitro Enhancement [1]: − (“−” represents less than 10% effect) | HIV in vitro Inhibition (HIV-1): − (“−” represents less than 10% effect)

25. 123-145: β-hCG amino acids 123-145
KS in vitro (KS Y-1 and KS-SLK cells): − (“−” represents less than 10% effect) | HIV in vitro Inhibition (HIV-1): − (“−” represents less than 10% effect)
